# Test results reported in patent US8759546B2, “Physical nano-complexes for preventing and treating cancer and method for manufacturing the same” (Gold Nanotech Inc., priority 2012, dated 2014).
# Key:
# MBT-2 cells [1] = test: cell cycle of MBT-2 cells; format: cell-based
# Protocol: Following, the mechanism of the EGCG and nanogold mediated cell apoptosis was investigated. Refer to FIG. 7 for a table of the cell cycle of MBT-2 cell treated by various concentrations of EGCG and nanogold. […] The MBT-2 cells otherwise underwent G0/G1 arrest when the doses of EGCG (50 μM) and nanogold (2 ppm) were increased.
# [2] = test system: African green monkey kidney cells (Vero cell); test: viability of Vero cells at 48 hour post-treatment; format: cell-based; conditions: in the presence of EGCG or nanogold
# Protocol: (§1) Firstly, to evaluate the tumor cytotoxicity of EGCG and/or nanogold, we examined viabilities of bladder cancer cells (MBT-2) and African green monkey kidney cells (Vero cell acts as a normal cell) at 48 hour post-EGCG or -nanogold treatment. Referring to FIG. 3, which is a schematic diagram of the cell viability of Vero cells and MBT-2 cells under different treating concentration of EGCG and nanogold. […] Refer to FIG. 4 for a schematic diagram of the concentrations of EGCG and nanogold mediated the 50% of cell growth inhibition of Vero cell and MBT-2 cell (IC50). […] In contrast, the Vero cell numbers were not changed in the presence of EGCG or nanogold.
# MBT-2 cells [3] = test: apoptosis detection by Annexin-V and PI staining, flow cytometry; format: cell-based; conditions: in 48 hours
# Description: Cell apoptosis features some morphological alterations, such as chromatin condensation, membrane blebbing, inter-nucleosomal degradation of DNA, and apoptotic body formation. Previous study reported that EGCG can induce apoptosis via the PI3K/Akt pathway and Bcl-2 family proteins in T24 human bladder cancer cells. […] The cells in test were subjected to flow cytometry analysis, whereby apoptotic bodies can be detected by Annexin-V and PI staining Refer to FIG. […]
# caspase-3 and -7 = test: Caspase-3/7 activity in MBT-2 cells; format: cell-based; conditions: 12 and 24 hours treatment
# Protocol: To assure that the EGCG and nanogold mediated apoptosis are triggered by the caspase effectors, we then examined expressions of the apoptosis-dependent enzymes caspase-3 and -7. Refer to FIG. 8 for a schematic diagram of Caspase-3/7 activity after EGCG and/or nanogold treatment for 12 and 24 hours.
# [4] = superoxide radical scavenging effect; format: biochemical; conditions: compared to vitamin E alone
# Description: Refer to FIG. 2 for a schematic diagram of the anti-oxidant effect of the EGCG-nanogold complexes.
# [5] = test system: bladder cancer cells (MBT-2); test: viability of MBT-2 cells at 48 hour post-treatment; format: cell-based
# Protocol: as §1
substance,measurement,setting,value
epigallocatechin-3-gallate [EGCG],cell cycle arrest,"MBT-2 cells [1]; increased doses: EGCG 50 μM, nanogold 2 ppm",G0/G1 arrest
same,cell cycle arrest,MBT-2 cells [1]; lower doses,arrested in the S phase
same,Vero cell numbers,[2],not changed
same,percentage of Annexin-V-positive cells,MBT-2 cells [3],16.6%
same,"caspase-3 and -7, fold increase versus the vehicle-alone controls",caspase-3 and -7,2.42±0.43 fold
same,superoxide radical scavenging activity,[4],significant superoxide radical scavenging activity
same,"MBT-2 cell numbers, % of the control","[5]; EGCG and nanogold 2 ppm, combined or alone",49.7%
same,viability of MBT-2 cells,[5]; different treating concentrations,reduce the viability of MBT-2 cells in a concentration-dependent manner
